# Assay results published in patent publication US8283373B2, “Inhibitors of cytosolic phospholipase A2” (Pfizer Inc., priority 2005, dated 2012).
# Assays:
# [1] = system: experimental autoimmune encephalomyelitis (EAE); assay: Experimental autoimmune encephalomyelitis (EAE) model of multiple sclerosis; assay type: in vivo, mouse
# Procedure: Six groups of B6 mice were immunized with MOG/CFA and injected with pertussis toxin to induce experimental autoimmune encephalomyelitis (EAE), an animal model of Multiple sclerosis. Three groups of mice were treated with vehicle, 4-{3-[1-benzhydryl-5-chloro-2-(2-{[(2,6-dimethylbenzyl)sulfonyl]amino}ethyl)-1H-indol-3-yl]propyl}benzoic acid (Compound A), or 4-{2-[1-benzhydryl-5-chloro-2-(2-{[(3,4-dichlorobenzyl)sulfonyl]amino}-ethyl)-1H-indol-3-yl]ethoxy}benzoic acid (Compound B) from the day of Immunization (orally, 100 mg/kg, twice/day). Another three groups of mice were treated with vehicle, Compound A or Compound B starting on the day of EAE onset (day 15) (orally, 100 mg/kg, twice/day). […] The results are shown in the Table below, wherein mean clinical score is a mean of clinical evaluation of each animal for that particular day.
# Animals are Scored as Follows:
# • 0—no clinical signs of EAE (no paralysis) • 1—paralysis of tail • 2—paralysis of tail and partial hind leg paralysis • 3—paralysis of tail and complete hind leg paralysis • 4—paralysis of tail, complete hind leg paralysis and a partial front leg paralysis • 5—moribund animal (all four limbs paralyzed, lack of responsiveness, these mice were immediately euthanized).
# In addition, the compounds of Examples 14 and 25 were also found to be efficacious in the mouse experimental autoimmune encephalomyelitis (EAE) model of multiple sclerosis. As shown by the data in the Table below, these compounds led to a delayed onset of disease and reduced severity of disease when administered orally in doses as low as 2.5 mg/kg.
# [2] = system: primary dopaminergic neurons; assay: MPP+ exposure in dopaminergic neurons; assay type: cell-based, rat; conditions: 10 μM MPP+ 60 minutes, control 100, MPP+ alone 56.6
# Procedure: Primary dopaminergic neurons were isolated from E15 rat embryos as described in Pong K., et al., (1997) J. Neurochem. 69 986-994. Briefly, the ventral mesencephalon was isolated and tissue was pooled in ice-cold phosphate buffer saline (PBS) without Ca^2+ and Mg^2+. The tissue was transferred to an enzymatic dissociation media containing 20 IU/ml papain in Earle's balanced salt solution (Worthington Biochemical, Freehold, N.J.) and incubated for 30 minutes at 37° C. After enzymatic dissociation, the papain solution was aspirated and the tissue mechanically triturated with a fire-polished Pasteur pipette in complete media [Neurobasal Medium with B-27 supplement (Gibco, Grand Island, N.Y.), penicillin/streptomycin, aphidicolin, glutamate] containing 2,000 IU/ml DNase and 10 mg/ml ovomucoid protease inhibitor. Single-cell suspensions in complete media were plated on pre-coated poly-L-ornithine/laminin 24-well plates (Becton-Dickinson, Bedford, Mass.) at a density of 5.0×10^5 cells/well. Cells were maintained for one week prior to experimentation.
# Cultures were exposed to 10 μM MPP^+ for 60 minutes. After the exposure, fresh media was exchanged and fresh compound was added. Dopaminergic neuron viability was determined 24 hours later by measuring ^3H-dopamine uptake as described in Pong et al., 1997, supra.
smiles,measurement,setting,value
"Cc1cccc(C)c1CS(=O)(=O)NCCc1c(CCCc2ccc(C(=O)O)cc2)c2cc(Cl)ccc2n1C(c1ccccc1)c1ccccc1 [Compound A, 4-{3-[1-benzhydryl-5-chloro-2-(2-{[(2,6-dimethylbenzyl)sulfonyl]amino}ethyl)-1H-indol-3-yl]propyl}benzoic acid]",mean clinical score,"[1]; 100 mg/kg orally twice/day from EAE onset (day 15), day 11 after immunization",0
same,mean clinical score,"[1]; 100 mg/kg orally twice/day from EAE onset (day 15), day 12 after immunization",0
same,mean clinical score,"[1]; 100 mg/kg orally twice/day from EAE onset (day 15), day 13 after immunization",0
same,mean clinical score,"[1]; 100 mg/kg orally twice/day from EAE onset (day 15), day 14 after immunization",0
same,mean clinical score,"[1]; 100 mg/kg orally twice/day from EAE onset (day 15), day 15 after immunization",0.33
same,mean clinical score,"[1]; 100 mg/kg orally twice/day from EAE onset (day 15), day 16 after immunization",0.60
same,mean clinical score,"[1]; 100 mg/kg orally twice/day from EAE onset (day 15), day 17 after immunization",0.80
same,mean clinical score,"[1]; 100 mg/kg orally twice/day from EAE onset (day 15), day 18 after immunization",1.03
same,mean clinical score,"[1]; 100 mg/kg orally twice/day from EAE onset (day 15), day 19 after immunization",1.13
same,mean clinical score,"[1]; 100 mg/kg orally twice/day from EAE onset (day 15), day 20 after immunization",1.50
same,mean clinical score,"[1]; 100 mg/kg orally twice/day from EAE onset (day 15), day 21 after immunization",1.57
same,mean clinical score,"[1]; 100 mg/kg orally twice/day from EAE onset (day 15), day 22 after immunization",1.60
same,mean clinical score,"[1]; 100 mg/kg orally twice/day from EAE onset (day 15), day 23 after immunization",1.37
same,mean clinical score,"[1]; 100 mg/kg orally twice/day from EAE onset (day 15), day 24 after immunization",1.43
same,mean clinical score,"[1]; 100 mg/kg orally twice/day from EAE onset (day 15), day 25 after immunization",1.23
same,mean clinical score,"[1]; 100 mg/kg orally twice/day from EAE onset (day 15), day 26 after immunization",0.87
same,mean clinical score,"[1]; 100 mg/kg orally twice/day from EAE onset (day 15), day 27 after immunization",0.87
same,mean clinical score,"[1]; 100 mg/kg orally twice/day from day of immunization (Day 1), day 11 after immunization",0
same,mean clinical score,"[1]; 100 mg/kg orally twice/day from day of immunization (Day 1), day 12 after immunization",0
same,mean clinical score,"[1]; 100 mg/kg orally twice/day from day of immunization (Day 1), day 13 after immunization",0
same,mean clinical score,"[1]; 100 mg/kg orally twice/day from day of immunization (Day 1), day 14 after immunization",0
same,mean clinical score,"[1]; 100 mg/kg orally twice/day from day of immunization (Day 1), day 15 after immunization",0
same,mean clinical score,"[1]; 100 mg/kg orally twice/day from day of immunization (Day 1), day 16 after immunization",0
same,mean clinical score,"[1]; 100 mg/kg orally twice/day from day of immunization (Day 1), day 17 after immunization",0
same,mean clinical score,"[1]; 100 mg/kg orally twice/day from day of immunization (Day 1), day 18 after immunization",0
same,mean clinical score,"[1]; 100 mg/kg orally twice/day from day of immunization (Day 1), day 19 after immunization",0
same,mean clinical score,"[1]; 100 mg/kg orally twice/day from day of immunization (Day 1), day 20 after immunization",0
same,mean clinical score,"[1]; 100 mg/kg orally twice/day from day of immunization (Day 1), day 21 after immunization",0.06
same,mean clinical score,"[1]; 100 mg/kg orally twice/day from day of immunization (Day 1), day 22 after immunization",0.09
same,mean clinical score,"[1]; 100 mg/kg orally twice/day from day of immunization (Day 1), day 23 after immunization",0.16
same,mean clinical score,"[1]; 100 mg/kg orally twice/day from day of immunization (Day 1), day 24 after immunization",0.19
same,mean clinical score,"[1]; 100 mg/kg orally twice/day from day of immunization (Day 1), day 25 after immunization",0.25
same,mean clinical score,"[1]; 100 mg/kg orally twice/day from day of immunization (Day 1), day 26 after immunization",0.28
same,mean clinical score,"[1]; 100 mg/kg orally twice/day from day of immunization (Day 1), day 27 after immunization",0.38
same,prevention of EAE / reduction of clinical severity,"[1]; administered from the time of immunization, or in mice with or close to EAE",can prevent EAE
same,"dopaminergic neuron viability (3H-dopamine uptake), Avg.",[2]; 0.3 μM,76.9
same,"dopaminergic neuron viability (3H-dopamine uptake), Avg.",[2]; 1 μM,83.4
same,"dopaminergic neuron viability (3H-dopamine uptake), Avg.",[2]; 3 μM,78.8
same,"dopaminergic neuron viability (3H-dopamine uptake), Avg.",[2]; 10 μM,81.1
